In patent US4740503A, “Novel 5-fluoro-2'-deoxyuridine derivatives and salts thereof, process for producing the same, and antitumor agents containing the same” (priority 1984, dated 1988):
Values joined by “and” are separate entries in the source; they are usually repeats but may differ in a detail not shown here. Identical values can stand only once.

What was measured:
[1] = system: Ehrlich carcinoma cells; assay: Antitumor effect in Ehrlich carcinoma-bearing mice (tumor weight ratio to control); assay type: in vivo, ddY strain mice; details: i.p. once daily for 6 days, tumor weight on day 12 vs saline control
Procedure: Eight ddY strain mice (male, 5 weeks old, weight: about 25 g) per group were used, and 5×10^6 Ehrlich carcinoma cells were inoculated subcutaneously into the inguinal region of the mice. The test compound dissolved or suspended in a physiological saline solution was intraperitoneally administered to the mice once daily for 6 days from the day after the inoculation. As the control compound, FudR was used. To the control group was administered only the physiological saline solution.

[2] = Acute toxicity test (single intraperitoneal administration, LD50); details: mouse, in vivo, ip; single i.p. administration, male ddY mice, death judged on 14th day
Procedure: To ddY mice (male, 5 weeks old, 5 mice per group) was intraperitoneally administered the test compound dissolved or suspended in a physiological saline solution only one time. On the 14th day after the administration, the death of mouse was judged, and the LD50 value was calculated.

[3] = system: thymidylate synthetase; details: in cells, FduMP formed from FudR; cited from earlier work
[4] = system: cells; details: FduMP per se; cited from earlier work
[5] = in vitro, compared with 5-Fu; cited from earlier work
[6] = in vivo; cited from earlier work
[7] = system: nucleoside phosphorylase; details: cited from earlier work
[8] = cited from earlier work

Compound	Effect (T/C (%)) ([1]; 3 μmole/kg/day)	Effect (T/C (%)) ([1]; 10 μmole/kg/day)	LD50 at 336 h [2]	Effect (T/C (%)) ([1]; 1 μmole/kg/day)	further results
5-Fluoro-2'-deoxy-5'-O-hexanoyl-β-uridine-3'-(2-trimethylammonioethyl)phosphate.hydrate [Test compound 9]	38%	21%	–	–	–
CCCCCCCC/C=C\CCCCCCCC(=O)O[C@H]1C[C@H](n2cc(F)c(=O)[nH]c2=O)O[C@@H]1COP(=O)([O-])OCC[N+](C)(C)C [Test compound 3]	–	–	200 mg/kg	–	–
5-Fluoro-2'-deoxy-3'-O-palmitoyl-β-uridine-5'-[2-(4-dimethylaminopyridinio)ethyl]phosphate.hydrate [Test compound 4]	22%	19%	–	–	–
5-Fluoro-2'-deoxy-5'-O-palmitoyl-β-uridine-3'-[2-(1-pyrazolyl)ethyl]phosphate.hydrate [Example 7]	27%	–	–	40%	–
CCCCCCCCCCCCCCCC(=O)O[C@H]1C[C@H](n2cc(F)c(=O)[nH]c2=O)O[C@@H]1COP(=O)([O-])OCC[N+](C)(C)C [compound 1]	47%	19%	208 mg/kg	–	Effect (T/C (%)) ([1]; 30 μmole/kg/day): 15%
CCCCCCCCCCCCCCCC(=O)OC[C@H]1O[C@@H](n2cc(F)c(=O)[nH]c2=O)C[C@@H]1OP(=O)([O-])OCC[N+](C)(C)C [Test compound 5]	–	–	> 200 mg/kg	–	–
CCCCCCCCCCCCCCCCCC(=O)O[C@H]1C[C@H](n2cc(F)c(=O)[nH]c2=O)O[C@@H]1COP(=O)([O-])OCC[N+](C)(C)C [Test compound 2]	–	–	188 mg/kg	–	–
5-Fluoro-2'-deoxy-5'-O-palmitoyl-β-uridine-3'-{2-[4-(4-methyl)morpholinio]ethyl}phosphate.hydrate [Test compound 12]	10%	–	–	24%	–
CCCCCCCCCCCC(=O)OC[C@H]1O[C@@H](n2cc(F)c(=O)[nH]c2=O)C[C@@H]1OP(=O)([O-])OCC[N+](C)(C)C [Test compound 7]	–	–	> 300 mg/kg	–	–
CCCCCC(=O)OC[C@H]1O[C@@H](n2cc(F)c(=O)[nH]c2=O)C[C@@H]1OP(=O)([O-])OCC[N+](C)(C)C [compound 9]	32%	–	500 mg/kg	50%	–
5-Fluoro-2'-deoxy-5'-O-palmitoyl-β-uridine-3'-[2-(2-hydroxyethyldimethylammonio)ethyl]phosphate.hydrate [Test compound 11]	17%	–	–	38%	–
CCCCCCCCC=CCCCCCCCC(=O)OC[C@H]1O[C@@H](n2cc(F)c(=O)[nH]c2=O)C[C@@H]1OP(=O)([O-])OCC[N+](C)(C)C [compound 8]	28%	–	300 mg/kg	50%	–
CCCCCCCCCCCCCCCC(=O)OC[C@H]1O[C@@H](n2cc(F)c(=O)[nH]c2=O)C[C@@H]1OP(=O)([O-])OCC[N+]1(C)CCOCC1 [compound 12]	28%	–	–	46%	–
CCCCCCCCCCCCCCCCCC(=O)OC[C@H]1O[C@@H](n2cc(F)c(=O)[nH]c2=O)C[C@@H]1OP(=O)([O-])OCC[N+](C)(C)C [Test compound 6]	–	–	200 mg/kg	–	–
O=c1[nH]c(=O)n([C@H]2C[C@H](O)[C@@H](COP(=O)(O)O)O2)cc1F [FduMP, 5-fluoro-2'-deoxyuridine-5'-monophosphate]	–	–	–	–	thymidylate synthetase inhibition [3]: inhibits thymidylate synthetase; uptake by cells [4]: not taken up by cells
O=c1[nH]c(=O)n([C@H]2C[C@H](O)[C@@H](CO)O2)cc1F [FudR, 5-fluoro-2'-deoxy-β-uridine]	87%	67% and 77%	–	–	Effect (T/C (%)) ([1]; 30 μmole/kg/day): 42%; cytocidal activity [5]: stronger cytocidal activity than 5-fluorouracil; excretion [6]: rapidly excreted in vivo; metabolism [6]: metabolized to α-fluoro-β-alanine through 5-Fu; persistency [6]: poor in persistency; cleavage by nucleoside phosphorylase [7]: easily cleaved by nucleoside phosphorylase; clinical toxicity [8]: high toxicity; clinical efficacy ([8]; compared with 5-Fu): only equivalent in efficacy to 5-Fu
5-Fluoro-2'-deoxy-5'-O-palmitoyl-β-uridine-3'-[2-(2H-1,2,4-triazol-1-io)ethyl]phosphate.hydrate [Test compound 10]	66%	34%	–	–	–
CCCCCCCCCCCCCCCC(=O)OC[C@H]1O[C@@H](n2cc(F)c(=O)[nH]c2=O)C[C@@H]1OP(=O)([O-])OCC[N+](C)(C)CCO [compound 11]	44%	22%	–	41%	–
CCCCCCCCCCCCCCCC(=O)OC[C@H]1O[C@@H](n2cc(F)c(=O)[nH]c2=O)C[C@@H]1OP(=O)([O-])OCC[n+]1cnc[nH]1 [compound 10]	36%	18%	–	42%	–
